Laboratory results reported in patent publication US20160279079A1, “COMPOSITIONS AND METHODS FOR TREATING BONE DISEASES” (INDIANA UNIVERSITY RESEARCH AND TECHNOLOGY CORPORATION, priority 2013, published 2016).
“Also recorded” adds a separate entry of the source.

How the values were obtained:
ATF4 = assay: Western immunoblotting, ATF4 in MC3T3 E1-14 cells; type: cell-based, mouse
Procedure: (§1) METHOD EXAMPLE. Western Immunoblotting. Cells were lysed in a radioimmunoprecipitation assay (RIPA) buffer containing protease inhibitors (Santa Cruz Biotechnology, Santa Cruz, Calif., USA) and phosphatase inhibitors (Calbiochem, Billerica, Mass., USA). Isolated proteins were fractionated using 10-15% SDS gels and electro-transferred to Immobilon-P membranes (Millipore, Billerica, Mass., USA). The membrane was incubated for 1 h with primary antibodies followed by 45 min incubation with goat anti-rabbit or anti-mouse IgG conjugated with horseradish peroxidase (Cell Signaling, Danvers, Mass., USA). We used antibodies against ATF4, NFATcl (Santa Cruz), p-eIF2α (Thermo Scientific, Waltham, Mass., USA), eIF2α, caspase 3, cleaved caspase 3, p38 and p-p38 mitogen activated protein kinase (MAPK), extracellular signal-regulated kinase (ERK) and p-ERK, nuclear factor kappa B (NFκB) p65 and p-NFκB p65 (Cell Signaling), and β-actin (Sigma). Protein levels were assayed using a SuperSignal west femto maximum sensitivity substrate (Thermo Scientific), and signal intensities were quantified with a luminescent image analyzer (LAS-3000, Fuji Film, Tokyo, Japan).
METHOD EXAMPLE. ATF4-mediated elevation of osteocalcin mRNA in MC3T3 E1-14 cells. Salubrinal is an inhibitor of de-phosphorylation of eIF2α. […]

p-eIF2α = assay: Western immunoblotting, p-eIF2α in RAW264.7 cells; type: cell-based, mouse; conditions: with RANKL
Excerpt: METHOD EXAMPLE. Reduction of RANKL-induced NFATcl, c-Fos, TRAP, and OSCAR by guanabenz. […] The normalized level of “1” was defined as the level for the cells that were not treated with RANKL without administration of guanabenz.
as §1
METHOD EXAMPLE. […]

p-p38 MAPK = assay: Western immunoblotting, p-p38 MAPK in RAW264.7 cells; type: cell-based, mouse; conditions: 20 μM salubrinal
Procedure: as §1
(§2) METHOD EXAMPLE. Temporal profile of p-eIF2α and NFATcl. […] Note that the normalized level of “1” in FIG. 6C was defined as the level for the cells that were not treated with RANKL without administration of guanabenz.

MC3T3 E1-14 cells = assay: Mineralization assay (Alizarin Red S staining); type: cell-based, mouse; conditions: 3-week incubation in an osteogenic medium
Procedure: METHOD EXAMPLE. Mineralization assay. Mineralization of extracellular matrix was assayed by Alizarin Red S staining. MC3T3-E1 cells were plated in 6-well plates. When cells were confluent, 50 μg/ml of ascorbic acid (Wako Chemicals, Richmond, Va., USA) and 5 mM β-glycerophosphate (Sigma) were added. The medium was changed every other day, and staining was conducted after 3 week. Cells were washed with PBS twice and fixed with 60% isopropanol for 1 min at room temperature, followed by rehydration with distilled water for 3 min at room temperature. They were stained with 1% Alizarin red S (Sigma) for 3 min and washed with distilled water.
(§3) METHOD EXAMPLE. Enhanced mineralization of MC3T3 E1-14 cells by salubrinal. Prior to examining the effects of salubrinal on osteoclastogenesis, its effects on development of osteoblasts was tested, focusing on cell viability, phosphorylation of eIF2α (p-eIF2α), expression of ATF4 and osteocalcin, and matrix mineralization. […] The enhanced mineralization was also observed in non-clonal MC3T3 E1 cells (Supplementary FIG. S1).

cleaved caspase 3 = assay: Western immunoblotting, cleaved caspase 3 in MC3T3 E1-14 cells; type: cell-based, mouse; conditions: 10 μM salubrinal, 24 h
Procedure: as §1
METHOD EXAMPLE. Enhanced mineralization of MC3T3 E1-14 cells by salubrinal. […]

p-ERK = assay: Western immunoblotting, p-ERK in RAW264.7 cells; type: cell-based, mouse; conditions: 20 μM salubrinal
Procedure: as §1, §2

p-NFκB = assay: Western immunoblotting, p-NFκB in RAW264.7 cells; type: cell-based, mouse; conditions: 20 μM salubrinal
Procedure: as §1, §2

[1] = system: MC3T3 E1 mouse osteoblast-like cells (clone 14); assay: Cell mortality and proliferation of MC3T3 E1-14 cells; type: cell-based; conditions: 5-20 μM salubrinal
Procedure: METHOD EXAMPLE. Cell culture. MC3T3 E1 mouse osteoblast-like cells (clone 14—MC3T3 E1-14; and no clonal cells in supplementary figures), and RAW264.7 mouse pre-osteoclast (monocyte/macrophage) cells were cultured in αMEM containing 10% fetal bovine serum and antibiotics (50 units/ml penicillin, and 50 μg/ml streptomycin; Life Technologies, Grand Island, N.Y., USA). Cells were maintained at 37° C. and 5% CO2 in a humidified incubator. Cell mortality and live cell numbers were determined 24 h after the treatment with 20 ng/ml RANKL (PeproTech, Rocky Hills, N.C., USA) in response to 0.1-20 μM salubrinal or 1-20 μM guanabenz acetate (Tocris Bioscience, Ellisville, Mo., USA). Cells were stained with trypan blue and the numbers of live and dead cells were counted using a hemacytometer.
as §3

SMILES | ATF4 (ATF4; guanabenz) | temporal expression profile of p-eIF2α (p-eIF2α; 20 μM guanabenz) | phosphorylation level of p38 MAPK (p-p38 MAPK) | ATF4 expression (ATF4; 5 μM salubrinal) | mineralization (Alizarin red S staining area) (MC3T3 E1-14 cells) | expression level of cleaved caspase 3 (cleaved caspase 3) | phosphorylation level of ERK (p-ERK) | phosphorylation level of NFκB (p-NFκB) | level of p-eIF2α (p-eIF2α; 20 μM salubrinal, early period (2-4 h)) | cell mortality [1] | cell proliferation [1]
N=C(N)N/N=C/c1c(Cl)cccc1Cl [guanabenz] | increase in p-eIF2α and ATF4 | upregulatcd in 2 h | – | – | – | – | – | – | – | – | –
O=C(/C=C/c1ccccc1)NC(NC(=S)Nc1cccc2cccnc12)C(Cl)(Cl)Cl (centres unmarked) [salubrinal] | – | – | did not significantly alter; also recorded: no detectable changes | increase in ATF4 expression | enhanced mineralization of MC3T3 E1-14 cells in a dose dependent manner | did not elevate | did not significantly alter; also recorded: no detectable changes | did not significantly alter; also recorded: no detectable changes | increased the level of p-eIF2α | did not increase cell mortality or inhibit cell proliferation | did not increase cell mortality or inhibit cell proliferation
